From ChEMBL document CHEMBL1201862, “PubChem BioAssay data set” (2004)
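96-well plates; 48 h exposure; 5 concentrations. Endpoints by linear interpolation between flanking doses. Not reached: highest tested concentration assigned. Here, GI50 denotes the concentration required for 50% inhibition of growth.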 Activity calls are given as the source filed them. Cut-off read from the data, not from the text of the source: active = GI50 up to about 1.1 µM and inactive = higher.

How the values were obtained:
Assay in all cases: growth of human tumour cells (NCI), 48 h
[1] = system: A498
[2] = system: COLO 205
[3] = system: EKVX
[4] = system: HCC 2998
[5] = system: HOP-62
[6] = system: HOP-92
[7] = system: K562
[8] = system: KM12
[9] = system: LOX IMVI
[10] = system: Malme-3M
[11] = system: NCI-H23
[12] = system: OVCAR-3
[13] = system: OVCAR-4
[14] = system: OVCAR-8
[15] = system: SK-MEL-2
[16] = system: SK-OV-3
[17] = system: DU-145
[18] = system: MCF7
[19] = system: PC-3

Measured: GI50

COC(=O)CCC(=O)C(CC(=O)OC)C(=O)CCC(=O)NCCc1ccccc1 (stereo not given)
inactive: [1] > 100 µM | [2] > 100 µM | [3] > 100 µM | [4] > 100 µM | [5] > 100 µM | [6] > 100 µM | [7] > 100 µM | [8] > 100 µM | [9] > 100 µM | [10] > 100 µM | [11] > 100 µM | [12] > 100 µM | [13] > 100 µM | [14] > 100 µM | [15] > 100 µM | [16] > 100 µM

N=c1n(CC(=O)NC23CC4CC(CC(C4)C2)C3)c2ccccc2n1CC(=O)NC12CC3CC(CC(C3)C1)C2
inactive: [1] 1.7 µM | [2] 1.89 µM | [3] 2.26 µM | [4] 1.36 µM | [5] 2.02 µM | [6] 1.65 µM | [7] 2.82 µM | [8] 1.61 µM | [9] 1.63 µM | [10] 1.67 µM | [11] 1.74 µM | [12] 1.88 µM | [13] 1.79 µM | [14] 1.68 µM | [15] 17.2 µM | [16] 15.7 µM

CSC(C1c2ccccc2N(C)C2=NC(=O)N(C)C(=O)C21Cl)S(=O)(=O)c1ccc(C)cc1 (stereo not given)
inactive: [1] > 100 µM | [2] 40.2 µM | [3] 94.4 µM | [4] > 100 µM | [5] > 100 µM | [6] 24.9 µM | [7] 16.7 µM | [8] 60.5 µM | [9] 45.8 µM | [10] 40.3 µM | [11] 27 µM | [12] 18.9 µM | [13] 61.2 µM | [14] 21 µM | [15] 33 µM | [16] > 100 µM

O=c1c2cc(Br)cc(Br)c2nc(CCCl)n1-c1ccc(O)c([N+](=O)[O-])c1
inactive: [1] 25.8 µM | [2] 21 µM | [3] 34.5 µM | [4] 18.5 µM | [5] 18.7 µM | [6] 24 µM | [7] 33.3 µM | [8] 18.5 µM | [10] 19.1 µM | [11] 21.7 µM | [12] 19.1 µM | [13] 15.5 µM | [14] 22.9 µM | [15] 18.9 µM | [16] 15.8 µM

O=C1/C(=C/c2ccc3c(c2)OCCO3)CCC/C1=C\c1ccc2c(c1)OCCO2
inactive: [1] 27.7 µM | [2] 15.6 µM | [3] 51.3 µM | [4] 18.1 µM | [5] 33.3 µM | [6] 32.1 µM | [8] 6.21 µM | [9] 8.41 µM | [10] 29 µM | [12] 20.3 µM | [13] 21.1 µM | [14] 15.9 µM | [16] 83.8 µM

CCn1c(=O)nc2n(-c3ccc(SC)cc3)c3ccccc3nc-2c1=O
inactive: [1] > 100 µM | [2] 8.15 µM | [3] > 100 µM | [4] 29 µM | [5] > 100 µM | [6] > 100 µM | [7] > 100 µM | [8] > 100 µM | [10] > 100 µM | [11] > 100 µM | [12] 24.6 µM | [13] > 100 µM | [14] > 100 µM | [15] > 100 µM | [16] > 100 µM

CC(=O)OC1(C)C(=O)OC1(C)C(C)=O (stereo not given)
inactive: [1] > 100 µM | [2] > 100 µM | [3] > 100 µM | [4] > 100 µM | [6] > 100 µM | [7] > 100 µM | [8] > 100 µM | [9] > 100 µM | [10] > 100 µM | [11] > 100 µM | [12] > 100 µM | [13] > 100 µM | [14] > 100 µM | [15] > 100 µM | [16] > 100 µM

Cc1nc(O)c2ncn(CCO)c2n1
inactive: [1] > 100 µM | [2] > 100 µM | [17] > 100 µM | [3] > 100 µM | [4] > 100 µM | [5] > 100 µM | [7] > 100 µM | [8] > 100 µM | [9] > 100 µM | [18] > 100 µM | [10] > 100 µM | [11] > 100 µM | [12] > 100 µM | [13] > 100 µM | [14] > 100 µM | [19] > 100 µM | [16] > 100 µM

C(=C1\CCC/C(=C/c2ccccc2)C1=NNc1ccccc1)/c1ccccc1
inactive: [1] > 100 µM | [2] > 100 µM | [3] > 100 µM | [4] > 100 µM | [5] 46.7 µM | [6] > 100 µM | [7] > 100 µM | [8] > 100 µM | [9] > 100 µM | [10] > 100 µM | [11] > 100 µM | [12] > 100 µM | [13] > 100 µM | [14] > 100 µM | [15] > 100 µM | [16] > 100 µM

CS(=O)(=O)NNS(=O)(=O)c1ccc(Br)cc1
inactive: [1] > 100 µM | [2] > 100 µM | [3] > 100 µM | [4] > 100 µM | [5] > 100 µM | [6] > 100 µM | [7] > 100 µM | [9] > 100 µM | [10] > 100 µM | [11] > 100 µM | [13] > 100 µM | [14] > 100 µM | [15] > 100 µM | [16] > 100 µM

CC(=O)Nc1ccccc1NC1CC(C)N(c2ccccc2)N1C(C)=O (stereo not given)
inactive: [2] > 10 µM | [17] > 10 µM | [3] > 10 µM | [4] > 10 µM | [5] > 10 µM | [6] > 10 µM | [7] > 10 µM | [8] > 10 µM | [18] > 10 µM | [10] > 10 µM | [11] > 10 µM | [13] > 10 µM | [14] > 10 µM | [19] > 10 µM | [16] > 10 µM

CCOC(=O)c1ccc(-n2c(SCC)nc3sc(C)c(C)c3c2=O)cc1
inactive: [1] 25.2 µM | [2] > 100 µM | [3] > 100 µM | [4] > 100 µM | [5] > 100 µM | [6] 50.7 µM | [7] > 100 µM | [8] > 100 µM | [9] > 100 µM | [10] > 100 µM | [11] > 100 µM | [12] 40.6 µM | [13] 53.8 µM | [14] 68.7 µM | [15] > 100 µM | [16] > 100 µM

O=C1CSC(=S)N1 [RHODANINE]
inactive: [2] > 100 µM | [17] > 100 µM | [3] > 100 µM | [4] > 100 µM | [5] > 100 µM | [6] > 100 µM | [7] > 100 µM | [8] > 100 µM | [9] > 100 µM | [18] > 100 µM | [10] > 100 µM | [11] > 100 µM | [12] > 100 µM | [14] > 100 µM | [19] > 100 µM | [15] > 100 µM
